Experimental data: patent US6274627A, “Conjugates of dithiocarbamate disulfides with pharmacologically active agents and uses therefor” (Medinox, Inc., priority 1999, dated 2001)
“Also recorded” adds a separate entry of the source.

How the values were obtained:
cancer patients = cancer patients receiving adriamycin chemotherapy; cited from earlier work
[1] = iron-ICRF-187 complex, Fenton reaction; cited from earlier work
[2] = test system: male Sprague-Dawley rats (carrageenan-injected paw); assay: Acute inflammation: rat carrageenan-induced hindlimb edema model; type: in vivo
Procedure: Efficacy of NSAIDs in acute inflammation can be estimated by using intraplantar injection of carrageenan in the rat. Male Sprague-Dawley rats (200-250 g) were injected intradermally in the footpad with 50 μl of a 1% carrageenan solution in PBS. Swelling of the injected paw was measured at 2, 3, 5 & 7 hours using a plethysmometer.

[3] = test system: Lewis male rats (M. tuberculosis adjuvant-induced arthritis); assay: Chronic inflammation: rat adjuvant arthritis model; type: in vivo; settings: for reduction of swelling compared to control by day 15: oral high doses: naproxen 10 mg/kg, days 5-8 and 11-14
Procedure: Thus, paw volume increases (measured with a Plethysmometer) are reported as a function of time, and were measured in the injected feet of Lewis male rats in which arthritis was induced by intradermel injection of adjuvant into the footpad.
NSAIDs are useful in both chronic and acute inflammatory conditions. Efficacy in chronic inflammation can be estimated using the rat adjuvant arthritis model (Blackham et al. supra). In this model Lewis male rats (175-250 g) were injected intradermally in the footpad with M. tuberculosis powder suspended in mineral oil at 5 mg/ml. Progressive swelling of the uninjected paw and ankle joint between days 11 and 15 was measured by plethysmometry.

esterase = assay: Enzymatic hydrolysis of PDD-NSAIDs by esterase; type: in vitro ADME; settings: for time within which the compound was decomposed into two compounds: esterase, PBS buffer, as described for compound 12
Procedure: The resulting solution was put in a water bath (37° C.) for 30 min and then at room temperature overnight.

[4] = test system: male Sprague-Dawley rats (stomach, gastric lesions); assay: Gastric erosions in the rat gastropathy model; type: in vivo; settings: oral; for length of the lesions (most of the lesions): corpus of the stomach; for number of gastric lesions, dose dependence: naproxen 15 and 30 mg/kg, PDD-Naproxen 27 & 54 mg/kg (equimolar)
[5] = Plasma pharmacokinetics of naproxen following oral administration of PDD-Naproxen or naproxen in rats
COX-2 = settings: cited from earlier work
[6] = test system: gastrointestinal toxicity; settings: in vivo; cited from earlier work
nuclear factor kappa B = settings: intact cells; cited from earlier work
[7] = PDD-Naproxen (NOX-319) 18 mg/kg

SMILES: C[C@@H](CN1CC(=O)NC(=O)C1)N1CC(=O)NC(=O)C1 [ICRF-187]
- removal of iron from the anthracycline-iron complex, preventing cardiac toxicity (cancer patients): effective for the removal of iron from the anthracycline-iron complex, therefore preventing the cardiac toxicity
- promotion of hydroxyl radical generation [1]: very effective at promoting hydroxyl radical generation

SMILES: COc1ccc2cc(C(C)C(=O)OCCCOC(=O)C3CCCN3C(=S)SSC(=S)N3CCCC3C(=O)OCCCOC(=O)C(C)c3ccc4cc(OC)ccc4c3)ccc2c1 (stereo not shown) [PDD-Naproxen]
- reduction in paw swelling ([2]; oral 1 h before carrageenan, naproxen 10 mg/kg or PDD-Naproxen 18 mg/kg (equimolar)): reduced inflammation significantly at 2 and 3 hours, but started to wear off by 5 hours
- acute antiinflammatory activity, overall ([2]; oral, carrageenan model): orally active in rats, but slightly less effective vs acute inflammation than the parent drug; also recorded: antiinflammatory activity similar to naproxen; also recorded: alleviation of acute inflammation
- reduction of swelling compared to control by day 15 [3, 7]: approximately 70%
- chronic antiinflammatory effect, overall ([3]; oral, equimolar doses, vs naproxen): antiinflammatory activity similar to naproxen; also recorded: antiinflammatory effects equal to those of naproxen; also recorded: effectiveness of PDD-Naproxen in the treatment of adjuvant-induced arthritis
- effect on swelling by day 15, lower doses ([3]; oral, naproxen 1 mg/kg, PDD-Naproxen (NOX-319) 1.8 mg/kg): slight effect by day 15
- reduction of swelling on days 13 through 15, high doses ([3]; oral, naproxen 10 mg/kg, PDD-Naproxen (NOX-319) 18 mg/kg): comparable reduction of swelling
- decomposition by esterase (esterase; 33.3 units esterase in PBS buffer, 37° C. for 30 min, then room temperature overnight): decomposed into two compounds
- gastric safety / tendency to cause gastric erosions, overall ([4]; relative to naproxen): has the ability to reduce the number of erosions in the corpus of the stomach; also recorded: tendency to cause gastric erosions is reduced; also recorded: improved gastric safety
- number of gastric erosions, low dose ([4]; PDD-Naproxen 27 mg/kg vs naproxen 15 mg/kg, 6 animals in each group): fewer erosions than the low dose of naproxen, but statistical significance was not achieved
- number of gastric lesions, high dose ([4]; PDD-Naproxen 54 mg/kg vs naproxen 30 mg/kg, 3 h): significantly fewer lesions than the high dose naproxen group (ANOVA; p<0.005)
- length of the lesions (most of the lesions) [4]: less than 2 mm
- number of gastric lesions, dose dependence ([4]; 3 h): dose-related number of lesions
- naproxen pharmacokinetic profile, overall ([5]; oral or IV, vs naproxen itself): better naproxen pharmacokinetic profiles than naproxen itself
- AUCinf comparison, oral ([5]; oral, PDD-Naproxen vs naproxen): no significant difference

SMILES: COc1ccc2cc(CCC(C)=O)ccc2c1 [nabumetone]
- selectivity for COX-2 (COX-2): marked selectivity for COX-2
- gastrointestinal toxicity relative to other NSAIDs on the market [6]: reduced gastrointestinal toxicity

SMILES: COc1ccc2c(c1)c(CC(=O)OCCCOC(=O)[C@@H]1CCCN1C(=S)SSC(=S)N1CCC[C@H]1C(=O)OCCCOC(=O)Cc1c(C)n(C(=O)c3ccc(Cl)cc3)c3ccc(OC)cc13)c(C)n2C(=O)c1ccc(Cl)cc1 [Compound 24]
- time within which the compound was decomposed into two compounds (esterase): ≤ 5 h

SMILES: CC(C)Cc1ccc(C(C)C(=O)OCCCOC(=O)[C@@H]2CCCN2C(=S)SSC(=S)N2CCC[C@H]2C(=O)OCCCOC(=O)C(C)c2ccc(CC(C)C)cc2)cc1 (stereo partly shown) [Compound 16]
- time within which the compound was decomposed into two compounds (esterase): ≤ 5 h

SMILES: CC(C(=O)OCCCOC(=O)[C@@H]1CCCN1C(=S)SSC(=S)N1CCC[C@H]1C(=O)OCCCOC(=O)C(C)c1cccc(C(=O)c2ccccc2)c1)c1cccc(C(=O)c2ccccc2)c1 (stereo partly shown) [Compound 20]
- time within which the compound was decomposed into two compounds (esterase): ≤ 5 h

SMILES: S=C(S)N1CCCC1 [pyrrolidine dithiocarbamate]
- inhibition of nuclear factor kappa B (nuclear factor kappa B): potent inhibitors of nuclear factor kappa B

SMILES: COc1ccc2cc([C@H](C)C(=O)O)ccc2c1 [Naproxen, (S)-(+)-methoxy-α-methyl-2-naphthaleneacetic acid, reference compound]
- reduction of swelling compared to control by day 15 [3, 7]: approximately 70%
- length of the lesions (most of the lesions) [4]: less than 2 mm
- number of gastric lesions, dose dependence ([4]; 3 h): dose-related number of lesions
